Molecules are shown by their SMILES.

The assay relates to IFNγ-Induced NO Production. Nature of the assay: Nitric Oxide Suppression Assay (Suppression of IFNγ-Induced NO Production). The settings on record: RAW264.7; RAW 264.7 mouse macrophage cells; 2 hour pre-treatment with compound (3 μM to 0.3 nM, 10 point curve); 20 ng/mL interferon gamma, ~18 hour; Griess detection; n=2-3 in duplicates. The class given is cell-based. The procedure:
RAW 264.7, a mouse macrophage cell line, was obtained from American Type Culture Collection (Manassas Va.) and maintained in the log phase of growth in Dulbecco's Modified Eagle's Medium (DMEM), 10% heat inactivated fetal calf serum and 100 units/mL antibiotic-antimycotic (AA). Cells were cultured and maintained in a humidified incubator at 37° C. under 5% CO2 and 95% air. Cells were sub-cultured every 3 days by scraping and were not used beyond passage 20. All cell culture supplies were obtained from Life Technologies (Grand Island, N.Y.).
RAW 264.7 cells were plated 1 day in advance of experiment at a concentration of 80,000 cells/well onto CellBIND® 96 well plates (Corning, N.Y.) in a total volume of 100 μL. The next day, pre-treat cells with compounds (from 3 μM to 0.3 nM serially diluted in a 10 point curve) from a 10× stock by adding 10 μL per well in complete DMEM media containing 10% fetal calf serum. The plates were centrifuged for 3 minutes at 400×g at room temperature followed by 2 hour incubation at 37° C. The cells were then incubated overnight at 37° C. with 10 μL of the insult, interferon gamma (R&D Systems, Minneapolis, Minn.), from a 10× stock for a final concentration of 20 ng/mL. The plates were centrifuged for 3 minutes at 400×g at room temperature followed by ˜18 hour incubation at 37° C. The following day, transfer 50 μL cell culture supernatant from each well into a clear bottom 96 well plate and follow the instructions from Promega's Griess Detection Kit #G2930 (Madison, Wis.) which involves the addition of 50 μL of the provided sulfanilamide solution for a 5-10 minute incubation at room temperature. Next add 50 μL of the provided N-1-napthylethylenediamine dihydrochloride (NED) solution for a 5-10 minute incubation at room temperature and protected from light. If any air bubbles were introduced into the well, the plates need to be centrifuged for 5 minutes at 400×g at room temperature to avoid interference with absorbance readings. The plates were read for absorbance within 30 minutes with a filter between 520 nm and 550 nm.
For the ability of compounds to suppress the increase in nitric oxide release, the percent maximal intensity of nitric oxide detected in each well was normalized to that induced by the peak value for 20 ng/mL of interferon gamma alone and plotted against the compound concentration to calculate IC50 values and to control for plate-to-plate variability. Concentration-response data were analyzed using GraphPad Prism (San Diego, Calif.); the IC50 values were derived from a single curve fit to the mean data of n=2-3, in duplicates.
All compounds were dissolved in dimethyl sulfoxide at 10 mM stock solutions and tested at a concentration that the dimethyl sulfoxide levels never exceeded 1%.
In general terms: Nitrite, measured by Griess reagent, commonly stands in for NO production.
On to `C[C@@H]1C(=O)C(C#N)=C[C@]2(c3ccccc3)c3nn(C)c(-c4ccccc4)c3CC[C@@H]12` (racemic) [Example 2, rac-(5aS,6S,9aR)-2,6-dimethyl-7-oxo-3,9a-diphenyl-4,5,5a,6,7,9a-hexahydro-2H-benzo[g]indazole-8-carbonitrile], for which the IC50 came to 16.9 nM.
On to `C[C@@H]1C(=O)C(C#N)=C[C@]2(c3ccccc3)c3c(c(-c4ccccc4)nn3C)CC[C@@H]12` (racemic) [Example 3, rac-(5aS,6S,9aR)-1,6-dimethyl-7-oxo-3,9a-diphenyl-4,5,5a,6,7,9a-hexahydro-1H-benzo[g]indazole-8-carbonitrile], for which the IC50 turned out to be 7.19 nM.
The result for `COc1cccc([C@]23C=C(C#N)C(=O)[C@@H](C)[C@@H]2CCc2cn(C)nc23)c1` (racemic) [Example 4, rac-(5aS,6S,9aR)-9a-(3-methoxyphenyl)-2,6-dimethyl-7-oxo-4,5,5a,6,7,9a-hexahydro-2H-benzo[g]indazole-8-carbonitrile] reads 114 nM; that for `COc1cccc([C@]23C=C(C#N)C(=O)[C@@H](C)[C@@H]2CCc2cnn(C)c23)c1` (racemic) [Example 5, rac-(5aS,6S,9aR)-9a-(3-methoxyphenyl)-1,6-dimethyl-7-oxo-4,5,5a,6,7,9a-hexahydro-1H-benzo[g]indazole-8-carbonitrile], 41.3 nM; that for `C[C@@H]1C(=O)C(C#N)=C[C@]2(c3ccccc3)c3[nH]nc(-c4ccccc4)c3CC[C@@H]12` (racemic) [Example 6, rac-(5aS,6S,9aR)-6-methyl-7-oxo-3,9a-diphenyl-4,5,5a,6,7,9a-hexahydro-1H-benzo[g]indazole-8-carbonitrile], 37.5 nM.
On to `C[C@@H]1C(=O)C(C#N)=C[C@]2(c3ccccc3)c3nc(-c4ccccc4)ncc3CC[C@@H]12` (racemic) [Example 7, rac-(6aS,7S,10aR)-7-methyl-8-oxo-2,10a-diphenyl-5,6,6a,7,8,10a-hexahydrobenzo[h]quinazoline-9-carbonitrile], for which the concentration for half-maximal inhibition (IC50) amounted to 30.4 nM.
To `COc1nc(-c2ccccc2)nc2c1CC[C@H]1[C@H](C)C(=O)C(C#N)=C[C@]21c1ccccc1` (racemic) [Example 8, rac-(6aS,7S,10aR)-4-methoxy-7-methyl-8-oxo-2,10a-diphenyl-5,6,6a,7,8,10a-hexahydrobenzo[h]quinazoline-9-carbonitrile] belongs 96.3 nM.
The result for `C[C@@H]1C(=O)C(C#N)=C[C@]2(c3ccccc3)c3nc(Nc4ccccc4)ncc3CC[C@@H]12` (racemic) [Example 9, rac-(6aS,7S,10aR)-2-anilino-7-methyl-8-oxo-10a-phenyl-5,6,6a,7,8,10a-hexahydrobenzo[h]quinazoline-9-carbonitrile] reads 5.99 nM; that for `Cc1ncc2c(n1)[C@@]1(c3ccccc3)C=C(C#N)C(=O)[C@@H](C)[C@@H]1CC2` (racemic) [Example 33, rac-(6aS,7S,10aR)-2,7-dimethyl-8-oxo-10a-phenyl-5,6,6a,7,8,10a-hexahydrobenzo[h]quinazoline-9-carbonitrile], 23 nM.
To `C[C@@H]1C(=O)C(C#N)=C[C@]2(Cc3ccccc3)c3nn(C)cc3CC[C@@H]12` (racemic) [Example 162, rac-(5aS,6S,9aR)-9a-benzyl-2,6-dimethyl-7-oxo-4,5,5a,6,7,9a-hexahydro-2H-benzo[g]indazole-8-carbonitrile] belongs 231 nM.
Take `C[C@@H]1C(=O)C(C#N)=C[C@]2(Cc3ccccc3)c3c(cnn3C)CC[C@@H]12` (racemic) [Example 163, rac-(5aS,6S,9aR)-9a-benzyl-1,6-dimethyl-7-oxo-4,5,5a,6,7,9a-hexahydro-1H-benzo[g]indazole-8-carbonitrile]: the IC50 worked out at 406 nM.
`C[C@@H]1C(=O)C(C#N)=C[C@]2(Cc3ccccc3)c3nn(C)c(-c4ccccc4)c3CC[C@@H]12` (racemic) [Example 164, rac-(5aS,6S,9aR)-9a-benzyl-2,6-dimethyl-7-oxo-3-phenyl-4,5,5a,6,7,9a-hexahydro-2H-benzo[g]indazole-8-carbonitrile]: the IC50 amounted to 65 nM.
To `C[C@@H]1C(=O)C(C(N)=O)=C[C@]2(Cc3ccccc3)c3nn(C)c(-c4ccccc4)c3CC[C@@H]12` (racemic) [Example 165, rac-(5aS,6S,9aR)-9a-benzyl-2,6-dimethyl-7-oxo-3-phenyl-4,5,5a,6,7,9a-hexahydro-2H-benzo[g]indazole-8-carboxamide] belongs 706 nM; to `C[C@@H]1C(=O)C(C#N)=C[C@]2(c3ccccc3)c3nn(Cc4ccccc4)cc3CC[C@@H]12` (single isomer, unassigned) [Example 56], 93.2 nM; to `C[C@@H]1C(=O)C(C#N)=C[C@]2(c3ccccc3)c3c(cnn3Cc3ccccc3)CC[C@@H]12` (single isomer, unassigned) [Example 57], 22 nM.
To `C[C@@H]1C(=O)C(C#N)=C[C@]2(c3ccccc3)c3ncncc3CC[C@@H]12` [Example 1, (6aS,7S,10aR)-7-methyl-8-oxo-10a-phenyl-5,6,6a,7,8,10a-hexahydrobenzo[h]quinazoline-9-carbonitrile] belongs 5.35 nM.
To `COc1ccccc1-c1nc(OC)c2c(n1)[C@@]1(c3ccccc3)C=C(C#N)C(=O)[C@@H](C)[C@@H]1CC2` [Example 10, (6aS,7S,10aR)-4-methoxy-2-(2-methoxyphenyl)-7-methyl-8-oxo-10a-phenyl-5,6,6a,7,8,10a-hexahydrobenzo[h]quinazoline-9-carbonitrile] belongs 22.5 nM; to `C[C@@H]1C(=O)C(C#N)=C[C@]2(c3ccccc3)c3nc(-c4cccnc4)ncc3CC[C@@H]12` [Example 11, (6aS,7S,10aR)-7-methyl-8-oxo-10a-phenyl-2-(pyridin-3-yl)-5,6,6a,7,8,10a-hexahydrobenzo[h]quinazoline-9-carbonitrile], 6.03 nM.
For `CCNc1ncc2c(n1)[C@@]1(c3ccccc3)C=C(C#N)C(=O)[C@@H](C)[C@@H]1CC2` [Example 12, (6aS,7S,10aR)-2-(ethylamino)-7-methyl-8-oxo-10a-phenyl-5,6,6a,7,8,10a-hexahydrobenzo[h]quinazoline-9-carbonitrile], the 50% inhibitory concentration (IC50) worked out at 24.1 nM.
The result for `COc1nc(C)nc2c1CC[C@H]1[C@H](C)C(=O)C(C#N)=C[C@]21c1ccccc1` [Example 13, (6aS,7S,10aR)-4-methoxy-2,7-dimethyl-8-oxo-10a-phenyl-5,6,6a,7,8,10a-hexahydrobenzo[h]quinazoline-9-carbonitrile] reads 4.8 nM.
The result for `COc1nc(Nc2ccccc2)nc2c1CC[C@H]1[C@H](C)C(=O)C(C#N)=C[C@]21c1ccccc1` [Example 14, (6aS,7S,10aR)-2-anilino-4-methoxy-7-methyl-8-oxo-10a-phenyl-5,6,6a,7,8,10a-hexahydrobenzo[h]quinazoline-9-carbonitrile] reads 11.4 nM; that for `COc1nc(Nc2ccc(Br)cc2)nc2c1CC[C@H]1[C@H](C)C(=O)C(C#N)=C[C@]21c1ccccc1` [Example 15, (6aS,7S,10aR)-2-[(4-bromophenyl)amino]-4-methoxy-7-methyl-8-oxo-10a-phenyl-5,6,6a,7,8,10a-hexahydrobenzo[h]quinazoline-9-carbonitrile], 30 nM.
The result for `C[C@@H]1C(=O)C(C#N)=C[C@]2(c3ccccc3)c3nc(Nc4ccccc4)nc(-c4cncnc4)c3CC[C@@H]12` [Example 16, (6aS,7S,10aR)-2-anilino-7-methyl-8-oxo-10a-phenyl-4-(pyrimidin-5-yl)-5,6,6a,7,8,10a-hexahydrobenzo[h]quinazoline-9-carbonitrile] reads 7.8 nM; that for `Cc1nc(-c2cncn2C)c2c(n1)[C@@]1(c3ccccc3)C=C(C#N)C(=O)[C@@H](C)[C@@H]1CC2` [Example 17, (6aS,7S,10aR)-2,7-dimethyl-4-(1-methyl-1H-imidazol-5-yl)-8-oxo-10a-phenyl-5,6,6a,7,8,10a-hexahydrobenzo[h]quinazoline-9-carbonitrile], 3.25 nM.
In the case of `Cc1nc(-c2cnc(C)s2)c2c(n1)[C@@]1(c3ccccc3)C=C(C#N)C(=O)[C@@H](C)[C@@H]1CC2` [Example 18, (6aS,7S,10aR)-2,7-dimethyl-4-(2-methyl-1,3-thiazol-5-yl)-8-oxo-10a-phenyl-5,6,6a,7,8,10a-hexahydrobenzo[h]quinazoline-9-carbonitrile], the concentration for half-maximal inhibition (IC50) worked out at 5.17 nM.

As a reminder, the IC50 is the concentration at which inhibition is half-maximal.
